Assays:
HaCaT cells [1] = assay: MTT cytotoxicity assay, HaCaT (non-cancer); format: cell-based, human; details: 48 h
HaCaT cells [2] = assay: MTT cytotoxicity assay, HaCaT (non-cancer); format: cell-based, human
Experimental: (§1) Moreover, to investigate the activity of synthesized complexes as potential anticancer agents, their cytotoxicity toward a series of human cancer cell lines and a non-cancer cell line (HaCaT) was evaluated using the MTT assay. […] In addition, we also determined the cytotoxic activity of free ligands toward selected cancer cells. […] However, this effect depends on the cell line. […] The best values of cytotoxic activity of compounds have been obtained after 72 h of cell incubation. Additionally, synthesized complexes had high sensitivity to A549 cells, so this cell line was selected as the research subject for antitumor activity.
(§2) MCF7 cell line (human breast adenocarcinoma, morphology: epithelial-like, ATCC: HTB-22) and A549 cell line (human lung adenocarcinoma, morphology: epithelial, ATCC: CCL-185); HaCaT (human keratinocyte) were cultured in Dulbecco’s Modified Eagle’s Medium (DMEM, Corning, Poland) with phenol red, supplemented with 10% fetal bovine serum (FBS) and with 1% streptomycin/penicillin. Du-145 cell line (human prostate carcinoma); derived from metastatic site: brain was cultured in minimum essential medium (MEM, Corning) with only 10% fetal bovine serum (FBS). Cultures were incubated at 37 °C under a humidified atmosphere containing 5% CO2. Cells were passaged using a solution containing 0.05% trypsin and 0.5 mM EDTA. All media and other ingredients were purchased from ALAB, Poland.
(§3) Since most of the studied compounds are insoluble in aqueous media (Dulbecco’s Modified Eagle’s Medium or minimum essential medium (MEM, Corning), therefore, they needed to be pre-dissolved in DMSO for biological tests. DMSO concentration was kept below 1% in each tested concentration of each compound. Cytotoxicity was assessed by MTT assay performed according to the protocols described previously in the following experimental approaches: 6 h + 24 h, 24 h + 24 h, and 72 h + 24 h. In brief, 5×10^3 per well (0.2 mL) in the two first approaches, while 1×10^4 cells in the case of longer incubation time were seeded in 96-well flat-bottom microtiter plate, were incubated with the tested complexes at various ranges of concentrations. After an appropriate incubation time of 6, 24, or 72 h, the cells were washed thee time with PBS and fresh medium was applied for a further 24 h in each approach. Various compound concentrations (dilutions in proper medium supplemented with 1% FBS) were tested in five replicates and repeated at least three times. Determined values of IC50 (concentration of a drug required to inhibit the growth of 50% of the cells) are given as mean + S.D. (Standard Deviation). IC50 values were determined, from the plots of cell viability in the presence of various concentrations of each compound by matching dose–response curves and using the Origin 9.0 software. Furthermore, post-treatment survival assessment of the treated cells was analyzed under an inverted fluorescence microscope (Olympus IC51, Japan) with an excitation filter 470/20 nm. For this, cells were stained with two versatile fluorescence dyes: fluorescein diacetate (FDA, 5 mg/mL) and propidium iodide (PI, 5 mg/mL) in standard conditions in the dark for 20 min. Before visualization, dyes were removed and cells were washed with PBS twice.

MCF-7 cells = assay: MTT cytotoxicity assay, MCF-7; format: cell-based, human
Experimental: as §1, §2
as §3, with “Cytotoxicity was assessed by MTT assay performed according to the protocols described previously in the following experimental approaches: 6 h + 24 h, 24 h + 24 h, and 72 h + 24 h.” left out, “After an appropriate incubation time of 6, 24, or 72 h, the cells were washed thee time with PBS and fresh medium was applied for a further 24 h in each approach.” left out

Solubility (qualitative) = format: physicochemical
PANC-1 cells [3] = assay: MTT cytotoxicity assay, PANC-1; format: cell-based, human
Experimental: as §1, §3

PANC-1 cells [4] = assay: MTT cytotoxicity assay, PANC-1; format: cell-based, human; remark: listed apart in the source
A549 cells [5] = assay: MTT cytotoxicity assay, A549; format: cell-based, human
A549 cells [6] = assay: MTT cytotoxicity assay, A549; format: cell-based, human; remark: listed apart in the source
Experimental: as §1, §2, §3

Du-145 cells = assay: MTT cytotoxicity assay, Du-145; format: cell-based, human
Experimental: as §1, §2
as §3, with “Cytotoxicity was assessed by MTT assay performed according to the protocols described previously in the following experimental approaches: 6 h + 24 h, 24 h + 24 h, and 72 h + 24 h.” left out, “After an appropriate incubation time of 6, 24, or 72 h, the cells were washed thee time with PBS and fresh medium was applied for a further 24 h in each approach.” left out

[7] = Partition coefficient, shake-flask method (n-octanol/PBS); format: physicochemical
Experimental: The partition coefficient was determined by the shake-flask method. A small amount of compound was dissolved in 5 mL PBS-saturated n-octanol. The sample was sonicated until all the compound was dissolved. Next, 5 mL of PBS saturated with n-octanol was added and the experiment proceeded as before. The resulting mixture was vortexed for 30 min in horizontal position. The sample was centrifuged for 2 min at 3700 rpm to obtain a phase separation. Next, 2 mL of each phase was taken. The next steps were a 5 min sonication and measurement of absorption spectra of the obtained solutions. The calibration curve was prepared in order to determine the concentration of the tested compounds in individual solutions. It was made using the absorption intensity of the compounds in series dilution solutions in PBS saturated with octanol or octanol saturated with PBS in the concentration range c = 1–100 nM.

[8] = Stability towards atmospheric oxygen (UV-Vis); format: physicochemical
Experimental: Oxidation of copper(I) to copper(II) was observed within 12 h using UV-Vis spectroscopy (Figure 1) that was additionally conformed by color of the copper(I) inorganic compound solution changing from transparent to green. Additionally, oxidation of phosphines ligands (1, 2) was observed. It is worth mentioning that copper(I) ions can easily undergo oxidation processes. The instability of copper(I) complexes prevented us from evaluating their biological activity.

Row | Compound | IC50 (HaCaT cells [1]) [µM] | IC50 (HaCaT cells [2]; 24 h) [µM] | IC50 (HaCaT cells [2]; 72 h) [µM] | IC50 (MCF-7 cells; 24 h) [µM] | IC50 (MCF-7 cells; 48 h) [µM] | IC50 (MCF-7 cells; 72 h) [µM] | solubility in mixture of H2O:DMSO (100:1) (Solubility (qualitative)) | IC50 (PANC-1 cells [3]; 24 h) [µM] | IC50 (PANC-1 cells [3]; 72 h) [µM] | IC50 (PANC-1 cells [4]; 48 h) [µM] | IC50 (A549 cells [5]; 48 h) [µM] | IC50 (A549 cells [6]; 24 h) [µM] | IC50 (A549 cells [6]; 72 h) [µM] | IC50 (Du-145 cells; 24 h) [µM] | IC50 (Du-145 cells; 48 h) [µM] | IC50 (Du-145 cells; 72 h) [µM] | IC50 (HaCaT cells [1]; Homo sapiens, HaCaT) [µM] | IC50 (HaCaT cells [2]; Homo sapiens, HaCaT, 72 h) [µM] | IC50 (MCF-7 cells; Homo sapiens, MCF7, 48 h) [µM] | IC50 (MCF-7 cells; Homo sapiens, MCF7, 72 h) [µM] | also measured
1 | Ru(η^6-p-cymene)Cl2Ph2PCH2N(CH2CH2CH2CH3)2 [2b] | 445 ± 25 | 545 ± 13 | 347 ± 25 | 226 ± 20 | 226 ± 20 | 121 ± 20 | well soluble | 126 ± 6 | 112 ± 18 | 258 ± 6 | 387 ± 25 | 81 ± 4 | 14 ± 2 | 102 ± 6 | 103 ± 7 | 17 ± 3 |  |  |  |  | Experimental LogP (logPo/w) [7]: 3.84
2 | CCN(CC)CP(c1ccccc1)c1ccccc1 [compound 1, Ph2PCH2N(CH2CH3)2] |  |  |  |  |  |  |  |  |  |  |  |  |  |  |  |  | 458 ± 20 | 490 ± 12 | 149 ± 13 | 192 ± 20 | IC50 (HaCaT cells [2]; Homo sapiens, HaCaT, 24 h): 646 ± 20 µM; IC50 (MCF-7 cells; Homo sapiens, MCF7, 24 h): 458 ± 11 µM; solubility in H2O (Solubility (qualitative)): moderately; IC50 (PANC-1 cells [3]; Homo sapiens, PANC-1, 24 h): 426 ± 7 µM; IC50 (PANC-1 cells [3]; Homo sapiens, PANC-1, 72 h): 185 ± 12 µM; IC50 (A549 cells [5]; Homo sapiens, A549, 48 h): 47 ± 5 µM; IC50 (A549 cells [6]; Homo sapiens, A549, 24 h): 620 ± 9 µM; IC50 (A549 cells [6]; Homo sapiens, A549, 72 h): 183 ± 12 µM; IC50 (Du-145 cells; Homo sapiens, DU-145, 24 h): 203 ± 19 µM; IC50 (Du-145 cells; Homo sapiens, DU-145, 72 h): 86 ± 6 µM; sensitivity to oxidation in solution [8]: extremely sensitive to oxidation in solution
3 | CCNCC [diethylamine] | 545 ± 33 |  | > 1000 |  | 352 ± 25 | > 1000 |  |  | > 1000 | 305 ± 13 | 425 ± 38 |  | > 1000 |  | 126 ± 12 | > 1000 |  |  |  |  | 
4 | CC#N.CC#N.CCCCN(CCCC)CP(c1ccccc1)c1ccccc1.CCCCN(CCCC)CP(c1ccccc1)c1ccccc1.F[B-](F)(F)F.[Cu+] [2c, [Cu(NCCH3)2(Ph2PCH2N(CH2CH2CH2CH3)2)2]^+BF4^−] |  |  |  |  |  |  | well soluble |  |  |  |  |  |  |  |  |  |  |  |  |  | 
5 | CCCCN(CCCC)C[P+](c1ccccc1)(c1ccccc1)[Ir-3]([Cl])([Cl])[C]1(C)C(C)=C(C)C(C)=C1C [2a, Ir(η^5-Cp*)Cl2Ph2PCH2N(CH2CH2CH2CH3)2] | 420 ± 12 | 559 ± 25 | 302 ± 22 | 125 ± 15 | 189 ± 20 | 56 ± 6 |  | 106 ± 5 | 85 ± 16 | 198 ± 20 | 61 ± 3 | 79 ± 6 | 16 ± 3 | 69 ± 6 | 69 ± 8 | 13 ± 2 |  |  |  |  | Experimental LogP (logPo/w) [7]: 4.0
6 | N.N.[Cl][Pt][Cl] [Cisplatin, reference compound] | 362 ± 4 | 400 ± 3 | 102 ± 2 | 176 ± 5 | 151 ± 6 | 64 ± 4 |  | 166 ± 20 | 79 ± 5 | 131 ± 7 | 66 ± 9 | 70 ± 8 | 11 ± 3 | 85 ± 7 | 81 ± 8 | 50 ± 2 |  |  |  |  | 
7 | CCCCN(CCCC)CP(c1ccccc1)c1ccccc1 [compound 2, Ph2PCH2N(CH2CH2CH2CH3)2] |  |  |  |  |  |  |  |  |  |  |  |  |  |  |  |  | 420 ± 11 | 448 ± 25 | 125 ± 20 | 285 ± 11 | IC50 (HaCaT cells [2]; Homo sapiens, HaCaT, 24 h): 556 ± 13 µM; IC50 (MCF-7 cells; Homo sapiens, MCF7, 24 h): 355 ± 13 µM; solubility in H2O (Solubility (qualitative)): moderately; IC50 (PANC-1 cells [3]; Homo sapiens, PANC-1, 24 h): 386 ± 6 µM; IC50 (PANC-1 cells [3]; Homo sapiens, PANC-1, 72 h): 142 ± 20 µM; IC50 (PANC-1 cells [4]; Homo sapiens, PANC-1, 48 h): 158 ± 23 µM; IC50 (A549 cells [5]; Homo sapiens, A549, 48 h): 72 ± 6 µM; IC50 (A549 cells [6]; Homo sapiens, A549, 24 h): 569 ± 11 µM; IC50 (A549 cells [6]; Homo sapiens, A549, 72 h): 158 ± 11 µM; IC50 (Du-145 cells; Homo sapiens, DU-145, 24 h): 185 ± 12 µM; IC50 (Du-145 cells; Homo sapiens, DU-145, 48 h): 54 ± 8 µM; IC50 (Du-145 cells; Homo sapiens, DU-145, 72 h): 57 ± 4 µM; sensitivity to oxidation in solution [8]: extremely sensitive to oxidation in solution
8 | CCCCNCCCC [dibutylamine] |  |  |  |  |  |  |  |  |  |  |  |  |  |  |  |  | 445 ± 25 | > 1000 | 226 ± 20 | > 1000 | IC50 (PANC-1 cells [3]; Homo sapiens, PANC-1, 72 h): > 1000 µM; IC50 (PANC-1 cells [4]; Homo sapiens, PANC-1, 48 h): 258 ± 6 µM; IC50 (A549 cells [5]; Homo sapiens, A549, 48 h): 387 ± 25 µM; IC50 (A549 cells [6]; Homo sapiens, A549, 72 h): > 1000 µM; IC50 (Du-145 cells; Homo sapiens, DU-145, 48 h): 103 ± 7 µM; IC50 (Du-145 cells; Homo sapiens, DU-145, 72 h): > 1000 µM
9 | CC#N.CC#N.CCN(CC)CP(c1ccccc1)c1ccccc1.CCN(CC)CP(c1ccccc1)c1ccccc1.F[B-](F)(F)F.[Cu+] [1c, [Cu(NCCH3)2(Ph2PCH2N(CH2CH3)2)2]^+BF4^−] |  |  |  |  |  |  | well soluble |  |  |  |  |  |  |  |  |  |  |  |  |  | 

From publication PMC8876511, “Two out of Three Musketeers Fight against Cancer: Synthesis, Physicochemical, and Biological Properties of Phosphino Cu^I, Ru^II, Ir^III Complexes” (Pharmaceuticals, 2022)
